Laboratory results as given in US7270824B2, “Citrullinylarginine dipeptide analogs and their dermatological uses as care and treatment agents” (Exsymol S.A.M., priority 2002, dated 2007).
Non-standard residues stand in square brackets, D forms with d. Residues, ends and D or L forms follow the SMILES beside them. Cit = NC(=O)NCCC[C@H](N)C(=O)O

Key:
cultured fibroblasts = assay: Test 1: ATP dosage, energetic metabolism of cultured fibroblasts; type: cell-based; conditions: 1% active ingredient; fibroblasts 10^5 cells/ml, 2% fetal calf serum; control 26.7 +/- 5.2
Method: Test 1: influence of analogs of the citrullinylarginine natural dipeptide on the energetic metabolism of cultured fibroblasts through a triphosphate adenosine (ATP) dosage. Comparison with the purified natural dipeptide.
The fibroblasts cells are cultivated and seeded at a rate of 10^5 cells/ml in the presence of a growth factor-deprived medium (2% fetal calf serum).
On each cell suspension, the ATP quantity is measured by photometry, by establishing the decrease of absorbance at 340 nm according to following specific equations: • ATP+3-phosphoglycérate---->ADP+1,3-diphosphoglycérate • 1,3-diphosphoglycérate+NADH---->glycéraldéhyde-3-P+NAD+P

[1] = test system: human fibroblast cell line; assay: Test 2: cell proliferation (cytostimulation), neutral red colorimetric test; type: cell-based; conditions: human fibroblasts, 2% fetal calf serum, OD 540 nm
Method: Test 2: evidence of the cytostimulating properties of the citrullinylarginine natural dipeptide analogs.
The test was performed on a human fibroblast cell line maintained in a culture medium filed with 2% fetal calf serum.
The assessment of the cell proliferation is carried out through a neutral red colorimetric test (Borenfreund E. and al. (1984), Toxicol. Lett., vol.24, pp.119). Cell growth variation is then obtained by measuring optical density (OD) at 540 nm, following the specific equation: […]

| Compound | ATP quantity (cultured fibroblasts) | % stimulation ([1]; 0.016% active) [%] | % stimulation ([1]; 0.031% active) [%] | % stimulation ([1]; 0.063% active) [%] | % stimulation ([1]; 0.125% active) [%] | % stimulation ([1]; 0.5% active) [%] |
| --- | --- | --- | --- | --- | --- | --- |
| CC(=O)N[C@@H](CCCNC(N)=O)C(=O)N[C@@H](CCCNC(=N)N)C(=O)O [NAc-Cit-Arg, N-acetyl-L-citrullinyl-L-arginine] (Ac-[Cit]-Arg-OH) | 90.7 +/− 6.5 nM/mg proteins | 5 | 26 | 34 | 40 | 45 |
| N=C(N)NCCC[C@H](NC(=O)[C@@H](N)CCCNC(N)=O)C(=O)O [purified Cit-Arg, citrullinylarginine] (H-[Cit]-Arg-OH) | 88.62 +/− 8 nM/mg proteins | 2 | 25 | 30 | 32.5 | 36 |
